Drawing on patent US11746100B2 (GLOBAL BLOOD THERAPEUTICS, INC., priority 2020, dated 2023), this text covers pEC50 for 28 compounds.

This experiment addresses T1, human ferroportin (Homo sapiens, UniProt Q9NP59).
T1 construct: luciferase reporter (read with the Nano-Glo Luciferase Assay System); expressed in transfected cells; host or cells: CHO cells, stably transfected, expression induced with doxycycline
T1 sequence (Q9NP59 1-571): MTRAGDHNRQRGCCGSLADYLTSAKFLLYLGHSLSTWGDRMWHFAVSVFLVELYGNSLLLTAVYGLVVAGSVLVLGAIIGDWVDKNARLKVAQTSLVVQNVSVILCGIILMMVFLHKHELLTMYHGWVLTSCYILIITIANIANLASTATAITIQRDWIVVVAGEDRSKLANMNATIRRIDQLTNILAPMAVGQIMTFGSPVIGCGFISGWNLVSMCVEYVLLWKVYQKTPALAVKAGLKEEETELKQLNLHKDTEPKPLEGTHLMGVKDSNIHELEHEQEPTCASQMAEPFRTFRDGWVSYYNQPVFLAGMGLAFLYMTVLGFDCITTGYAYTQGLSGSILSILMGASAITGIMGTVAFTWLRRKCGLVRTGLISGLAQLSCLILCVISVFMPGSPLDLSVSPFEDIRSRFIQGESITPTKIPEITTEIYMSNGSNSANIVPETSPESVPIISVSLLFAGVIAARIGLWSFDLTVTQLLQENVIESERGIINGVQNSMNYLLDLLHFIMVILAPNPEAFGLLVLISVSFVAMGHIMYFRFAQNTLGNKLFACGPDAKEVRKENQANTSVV
The experiment can be described thus: Biological in-vitro ferroportin internalization assay (luciferase reporter). It counts as cell-based. The settings on record: average pEC50; stably-transfected CHO cell line expressing human ferroportin tagged to a luciferase reporter; 6 h incubation with test compound. A digest of the protocol:
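Stably transfected CHO cells expressing luciferase-tagged human ferroportin, plated 24 h with ferric ammonium citrate and induced with doxycycline for 24 h. Compounds incubated 6 h, then luciferase activity measured by Nano-Glo; average pEC50 reported.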
In general terms: In a reporter assay the amount or activity of a reporter protein is the signal.

Regarding `Cc1cnc(-c2nc3c(c(N(C)CC(=O)NC(C)(C)C)n2)CCC3)cc1OCCO` [Compound 191, N-tert-butyl-2-({2-[4-(2-hydroxyethoxy)-5-methylpyridin-2-yl]-5H,6H,7H-cyclopenta[d]pyrimidin-4-yl}(methyl)amino)acetamide], the pEC50 was found to be 7.

As for `COc1cc(-c2nc3c(c(N(C)CC(=O)NC(C)(C)C)n2)CCC3)ncc1C` [Compound 192, N-tert-butyl-2-{[2-(4-methoxy-5-methylpyridin-2-yl)-5H,6H,7H-cyclopenta[d]pyrimidin-4-yl](methyl)amino}acetamide], the negative-log EC50 (pEC50) stood at 6.5. The same measure for `CCn1cnc(-c2nc3c(c(N(C)CC(=O)NC(C)(C)C)n2)CCC3)c1` [Compound 193, N-tert-butyl-2-{[2-(1-ethyl-1H-imidazol-4-yl)-5H,6H,7H-cyclopenta[d]pyrimidin-4-yl](methyl)amino}acetamide]: 6.8. Compound `CCn1cncc1-c1nc2c(c(N(C)CC(=O)NC(C)(C)C)n1)CCC2` [Compound 194, N-tert-butyl-2-{[2-(1-ethyl-1H-imidazol-5-yl)-5H,6H,7H-cyclopenta[d]pyrimidin-4-yl](methyl)amino}acetamide] came in with a pEC50 of 5.4. `CN(CC(=O)NC(C)(C)C)c1nc(-c2cn(CCO)cn2)nc2c1CCC2` [Compound 195, N-tert-butyl-2-({2-[1-(2-hydroxyethyl)-1H-imidazol-4-yl]-5H,6H,7H-cyclopenta[d]pyrimidin-4-yl}(methyl)amino)acetamide] displayed a pEC50 of 6.9. The same measure for `CN(CC(=O)NC(C)(C)C)c1nc(-c2cncn2CCO)nc2c1CCC2` [Compound 196, N-tert-butyl-2-({2-[1-(2-hydroxyethyl)-1H-imidazol-5-yl]-5H,6H,7H-cyclopenta[d]pyrimidin-4-yl}(methyl)amino)acetamide]: 5.6; for `COc1ncc(NC(=O)CN(C)c2nc(-c3cc(OCCO)ccn3)nc3c2CCC3)cn1` [Compound 197, 2-({2-[4-(2-hydroxyethoxy)pyridin-2-yl]-5H,6H,7H-cyclopenta[d]pyrimidin-4-yl}(methyl)amino)-N-(2-methoxypyrimidin-5-yl)acetamide]: 7.4; for `CN(CC(=O)Nc1ccc(F)cc1)c1nc(-c2cc(OCCO)ccn2)nc2c1CCC2` [Compound 198, N-(4-fluorophenyl)-2-({2-[4-(2-hydroxyethoxy)pyridin-2-yl]-5H,6H,7H-cyclopenta[d]pyrimidin-4-yl}(methyl)amino)acetamide]: 8.1. With `Cc1ccc(NC(=O)CN(C)c2nc(-c3cc(OCCO)ccn3)nc3c2CCC3)cn1` [Compound 199, 2-({2-[4-(2-hydroxyethoxy)pyridin-2-yl]-5H,6H,7H-cyclopenta[d]pyrimidin-4-yl}(methyl)amino)-N-(6-methylpyridin-3-yl)acetamide], the negative logarithm of the EC50 (pEC50) was determined as 7.9. The same measure for `COc1ccnc(-c2nc3c(c(N(C)CC(=O)Nc4ccc(C)nc4)n2)CCC3)c1` [Compound 200, 2-{[2-(4-methoxypyridin-2-yl)-5H,6H,7H-cyclopenta[d]pyrimidin-4-yl](methyl)amino}-N-(6-methylpyridin-3-yl)acetamide]: 7.6; for `COc1ccc(NC(=O)CN(C)c2nc(-c3cn(C)cn3)nc3c2CCC3)cn1` [Compound 201, N-(6-methoxypyridin-3-yl)-2-{methyl[2-(1-methyl-1H-imidazol-4-yl)-5H,6H,7H-cyclopenta[d]pyrimidin-4-yl]amino}acetamide]: 7.4; for `CN(CC(=O)Nc1ccc(F)cc1)c1nc(-c2cn(C)cn2)nc2c1CCC2` [Compound 202, N-(4-fluorophenyl)-2-{methyl[2-(1-methyl-1H-imidazol-4-yl)-5H,6H,7H-cyclopenta[d]pyrimidin-4-yl]amino}acetamide]: 7.5.

In turn, `COc1ccc(N2CCN(c3nc(-c4ccccn4)nc4c3CCC4)CCC2=O)cc1` [Compound 203, 4-(4-methoxyphenyl)-1-[2-(pyridin-2-yl)-5H,6H,7H-cyclopenta[d]pyrimidin-4-yl]-1,4-diazepan-5-one] registered a pEC50 of 6.3. The result for `C[C@H](C(=O)NC1(C)CC1)N(C)c1nc(-c2ccccn2)nc2c1CCC2` [Compound 204, (2R)-2-{methyl[2-(pyridin-2-yl)-5H,6H,7H-cyclopenta[d]pyrimidin-4-yl]amino}-N-(1-methylcyclopropyl)propanamide] reads 6.9; that for `COc1ccnc(-c2nc3c(c(N(C)[C@H]4CCN(c5ccccc5)C4=O)n2)CCC3)c1` [Compound 205, (3S)-3-{[2-(4-methoxypyridin-2-yl)-5H,6H,7H-cyclopenta[d]pyrimidin-4-yl](methyl)amino}-1-phenylpyrrolidin-2-one], 7.5.

In turn, `CN(c1nc(-c2ccccn2)nc2c1CCC2)[C@H]1CCN(c2ccc(F)cc2)C1=O` [Compound 206, (3S)-1-(4-fluorophenyl)-3-{methyl[2-(pyridin-2-yl)-5H,6H,7H-cyclopenta[d]pyrimidin-4-yl]amino}pyrrolidin-2-one] gave a pEC50 of 6.9. As to `CN(c1nc(-c2ccccn2)nc2c1CCC2)[C@H]1CCN(C2(C)CCCC2)C1=O` [Compound 207, (3S)-3-{methyl[2-(pyridin-2-yl)-5H,6H,7H-cyclopenta[d]pyrimidin-4-yl]amino}-1-(1-methylcyclopentyl)pyrrolidin-2-one], the pEC50 came to 7.2.

Turning to `CN(c1nc(-c2ccccn2)nc2c1CCC2)[C@H]1CCN(c2ccncc2)C1=O` [Compound 208, (3S)-3-{methyl[2-(pyridin-2-yl)-5H,6H,7H-cyclopenta[d]pyrimidin-4-yl]amino}-1-(pyridin-4-yl)pyrrolidin-2-one], the pEC50 is reported as 5.7. The same measure for `COc1ccc(NC(=O)CN(C)c2nc(-c3cc(OCCO)ccn3)nc3c2CCC3)nc1` [Compound 209, 2-({2-[4-(2-hydroxyethoxy)pyridin-2-yl]-5H,6H,7H-cyclopenta[d]pyrimidin-4-yl}(methyl)amino)-N-(5-methoxypyridin-2-yl)acetamide]: 8; for `COc1ccc(NC(=O)CN(C)c2nc(-c3cc(OCC(C)(C)O)ccn3)nc3c2CCC3)cn1` [Compound 210, 2-({2-[4-(2-hydroxy-2-methylpropoxy)pyridin-2-yl]-5H,6H,7H-cyclopenta[d]pyrimidin-4-yl}(methyl)amino)-N-(6-methoxypyridin-3-yl)acetamide]: 7.9; for `CN(CC(=O)NC(C)(C)C)c1nc(-c2cc(OCC3COC3)ccn2)nc2c1CCC2` [Compound 211, N-tert-butyl-2-[methyl(2-{4-[(oxetan-3-yl)methoxy]pyridin-2-yl}-5H,6H,7H-cyclopenta[d]pyrimidin-4-yl)amino]acetamide]: 7.9. The same measure for `CSCC[C@H](C(=O)NC(C)(C)C)N(C)c1nc(-c2cc(OC(F)F)ccn2)nc2c1CCC2` [Compound 212, (2R)—N-tert-butyl-2-({2-[4-(difluoromethoxy)pyridin-2-yl]-5H,6H,7H-cyclopenta[d]pyrimidin-4-yl}(methyl)amino)-4-(methylsulfanyl)butanamide]: 7.1; for `CN(CC(=O)Nc1cnn(C)c1)c1nc(-c2cc(OC(F)F)ccn2)nc2c1CCC2` [Compound 213, 2-({2-[4-(difluoromethoxy)pyridin-2-yl]-5H,6H,7H-cyclopenta[d]pyrimidin-4-yl}(methyl)amino)-N-(1-methyl-1H-pyrazol-4-yl)acetamide]: 6.4; for `COc1ccc(NC(=O)CN(C)c2nc(-c3cc(OCC(C)(C)O)ccn3)nc3c2CCC3)nc1` [Compound 214, 2-({2-[4-(2-hydroxy-2-methylpropoxy)pyridin-2-yl]-5H,6H,7H-cyclopenta[d]pyrimidin-4-yl}(methyl)amino)-N-(5-methoxypyridin-2-yl)acetamide]: 7.8. The compound `CN(CC(=O)Nc1cnn(C)c1)c1nc(-c2cc(OCC3CC3)ccn2)nc2c1CCC2` [Compound 215, 2-({2-[4-(cyclopropylmethoxy)pyridin-2-yl]-5H,6H,7H-cyclopenta[d]pyrimidin-4-yl}(methyl)amino)-N-(1-methyl-1H-pyrazol-4-yl)acetamide] had a pEC50 of 7.5. The result for `CN(CC(=O)Nc1ccc(F)nc1)c1nc(-c2cc(OC(F)F)ccn2)nc2c1CCC2` [Compound 216, 2-({2-[4-(difluoromethoxy)pyridin-2-yl]-5H,6H,7H-cyclopenta[d]pyrimidin-4-yl}(methyl)amino)-N-(6-fluoropyridin-3-yl)acetamide] reads 6.6; that for `COc1ccc(NC(=O)CN(C)c2nc(-c3cc(OC(F)F)ccn3)nc3c2CCC3)nc1` [Compound 217, 2-({2-[4-(difluoromethoxy)pyridin-2-yl]-5H,6H,7H-cyclopenta[d]pyrimidin-4-yl}(methyl)amino)-N-(5-methoxypyridin-2-yl)acetamide], 6.9.

`CN(CC(=O)Nc1cnn(C)c1)c1nc(-c2cc3ccccc3cn2)nc2c1CCC2` [Compound 218, 2-{[2-(isoquinolin-3-yl)-5H,6H,7H-cyclopenta[d]pyrimidin-4-yl](methyl)amino}-N-(1-methyl-1H-pyrazol-4-yl)acetamide] displayed a pEC50 of 7.

A word on the pEC50: it is −log10 of the EC50, conventionally taken in molar units.
